Values quoted from earlier work as cited in US7316771B2, “Medium for analytic and preparative electrophoresis” (Becton, Dickinson and Company, priority 2000, dated 2008).
Several values for one entry are separate records, joined by “and”; a condition that tells them apart may be missing. Equal entries are not always repeated. Where two headings read alike, the source gives them in different places.

Settings: for pKa (Base): substance used as base in the medium; for pKa (Acid): substance used as acid in the medium

pKa (Base) | pKa (Acid) | pKa (Acid) (listed as 2-hydroxy pyridine) | Compound
2.3 and 2.2 |  |  | CCC(N)C(=O)O (centres unmarked) [2-Amino Butyric Acid]
1.8 |  |  | C[N+](C)(C)CC(=O)O [Betaine]
2.7 |  |  | CN(CC(=O)O)C(=N)N [Creatine]
3.1 |  |  | NCC(=O)NCC(=O)O [Glycyl Glycine]
 | 4.5 |  | CC(C)C(=O)O [Isobutyric Acid]
 | 5.5 |  | O=C(O)c1ccccn1 [Picolinic Acid]

The next lines start with the compound.

Compound | pKa (Base) | pKa (Acid) | pKa (Acid) (listed as 2-hydroxy pyridine)
Oc1ccccn1 [2-Hydroxy-Pyridine] |  | 11.8 | 11.6
Oc1ccncc1 [4-Hydroxy-Pyridine] |  | 11.2 | 
CN1CC(=O)NC1=N [Creatinine] | 4.8 |  | 
NC(=O)c1cccnc1 [Nicotinic Acid Amide] | 3.1 |  | 
